US4069337A, “2-Substituted-indole-1-lower-alkanecarboxamides having anti-secretory or anti-ulcer activity” (Sterling Drug Inc., priority 1976, dated 1978)
Like-named read-outs stand apart in the source and are kept apart here.

Experiments:
[1] = test system: secretion of gastric fluids; experiment: anti-secretory activity in pylorus-ligated rats (method of Shay et al.); type: in vivo, male albino Wistar rats; conditions: 100 mg./kg.; for inhibition in vivo at 100 mg/kg: Rattus norvegicus, 5 h, read-out: % Inhibition of Free Acid
Procedure: In standard biological test procedures, described generally by Shay et al., Gastroenterology 5, 43 (1945) and 26, 906 (1954) and by Selmici et al., Acta Physiol. Acad. Sci. Hung. […] Anti-secretory activity was determined in male albino Wistar rats weighing approximately 180 g. using the method described by Shay et al. which is described as follows: the rats were divided into medicated groups of at least five rats each and control groups of ten rats. The rats were medicated orally once daily for 2 days prior to stomach ligation and once again immediately following ligation. All drugs were administered as the free base, and control rats received only the vehicle of medication. The rats were housed individually in wire cages, food was withdrawn 48 hours prior to surgery, and water was withdrawn at the time of surgery. Laparotomy was performed under light ether anesthesia, the pyloric-duodenal junction was ligated, and the wound was closed with metal clips and sprayed with a protective surgical dressing. Five hours following surgery, the rats were sacrificed, the stomach was removed, and the gastric juice collected. The gastric fluid was centrifuged, the total volume, color, and volume of solids were recorded. The pH of the gastric fluid was then determined on a Beckman pH meter, and the "free" and "total" hydrochloric acid content of each gastric sample was determined by titrating an aliquot of the gastric fluid (diluted to approximately 10 ml. with distilled water) by titrating with 0.1N sodium hydroxide against Toepfers reagent and phenolphthalein, respectively. By determining the milliequivalents of hydrochloric acid per milliliter of gastric juice and knowing the total volume of gastric juice secreted by each rat, the total acid output can be calculated. Since pH is a function of "free" acid, the activity of the test compounds can be evaluated by comparison of the mean "free" acid of medicated rats with the mean "free" acid of the controls, and the activity can thus be expressed in terms of percent inhibition of free acid.
(§1) Data obtained on administration of the compounds of formula I in rats in the anti-secretory and anti-ulcer tests described above are given in the table below. Unless noted otherwise, data were obtained on oral administration. Results in the anti-secretory activity tests are given in terms of the pH of the gastric fluid in the test animals and the percent inhibition of free acid, while results in the anti-ulcer test are given either in terms of the percent inhibition of ulcers or as a ratio representing the number of animals with ulcers (as the numerator) to the total number of animals in the test group (as the denominator). All doses are expressed in mg./kg.

[2] = test system: reserpine-induced stomach ulceration; experiment: anti-ulcer activity, reserpine-induced ulcer test (method of Selmici et al.); type: in vivo, male, albino, Sprague-Dawley rats; conditions: oral; for inhibition in vivo at 100 mg/kg / Anti-Ulcer: ratio of number of animals with ulcers to total number of animals in the test group: 100 mg./kg.
Procedure: The anti-ulcer activity of the compounds was determined using the reserpine-induced anti-ulcer test method, described by Selmici et al., which is described briefly as follows: male, albino, Sprague-Dawley rats, weighing approximately 300 g., were divided into medicated and control groups of at least five rats each, and one positive control group of five rats medicated with a known drug at the active dose was run with each experiment. The rats were medicated forty-eight, twenty-four, and one hour before receiving an injection of reserpine. All test drugs were administered orally in terms of base, and the control rats received only the vehicle of medication. The rats were housed individually in wire cages, and food was withdrawn 24 hours prior to injection of reserpine, while water was allowed ad libitum. One hour following the third medication, 5.0 mg. of reserpine per kilogram of body weight in a concentration of 5 mg./ml. was injected intramuscularly in each rat. Eighteen hours after injection the rats were sacrificed, their stomachs removed, opened along the greater curvature, rinsed in warm saline, and pinned to a cork board for gross observation. The stomachs were examined for the number and size of ulcerations located in the glandular portion of the stomach with the aid of a one millimeter grid ocular with a 10x dissecting microscope. The degree of ulceration was arbitrarily graded according to the number and size of the ulcers as follows:
The points were added together and divided by the number of rats in each group to give an ulcer score, and the difference in the mean scores of the medicated and control group was expressed as percent inhibition of ulceration. Alternatively, the results can be expressed as a ratio of the total number of rats with any degree of ulceration (as the numerator) to the total number of rats in the test group (as the denominator).
as §1

Q: How did the inhibition in vivo at 100 mg/kg ([1]; po, oral) turn out when `Cc1c(C)n(CCC(N)=O)c2ccc(F)cc12` [Example 4C, β-(2,3-Dimethyl-5-fluoro-1-indole)propionamide] was run?
A: 97%

Q: And the “pH of the gastric fluid” value ([1]; oral)?
A: 5.9

Q: And the inhibition in vivo at 25 mg/kg ([2]; Rattus norvegicus, 18 h)?
A: 94%

Q: How did the inhibition in vivo at 100 mg/kg ([1]; po, oral) turn out when `CCc1c(C)c2ccccc2n1CCC(N)=O` [Example 4D, β-(2-Ethyl-3-methyl-1-indole)propionamide] was run?
A: 88%

Q: What about the “pH of the gastric fluid” value ([1]; oral) of the same compound?
A: 4.1

Q: What about the inhibition in vivo at 100 mg/kg ([2]; Rattus norvegicus, 18 h) of the same compound?
A: 97%

Q: For `CCc1c(C)n(CCC(N)=O)c2ccccc12` [Example 4E, β-(2-Methyl-3-ethyl-1-indole)propionamide], which inhibition in vivo at 100 mg/kg ([1]; po, oral) is on record?
A: 42%

Q: What about the “pH of the gastric fluid” value ([1]; oral) of the same compound?
A: 3.4

Q: And the inhibition in vivo at 6.25 mg/kg ([2]; Rattus norvegicus, 18 h, 6.25 mg./kg.)?
A: 60%

Q: And the inhibition in vivo at 12.5 mg/kg ([2]; Rattus norvegicus, 18 h, 12.5 mg./kg.)?
A: 72%

Q: And the inhibition in vivo at 25 mg/kg ([2]; Rattus norvegicus, 18 h)?
A: 80%

Q: What about the inhibition in vivo at 50 mg/kg ([2]; Rattus norvegicus, 18 h, 50 mg./kg.) of the same compound?
A: 94%

Q: What about the inhibition in vivo at 100 mg/kg ([2]; Rattus norvegicus, 18 h) of the same compound?
A: 93%

Q: Which results are given for `Cc1c(C=O)c2ccccc2n1CCC(N)=O` [Example 4F, β-(2-Methyl-3-formyl-1-indole)propionamide]?
A: inhibition in vivo at 100 mg/kg ([1]; oral): 0%; pH of the gastric fluid ([1]; oral): 1.2; inhibition in vivo at 100 mg/kg ([2]; Rattus norvegicus, 18 h): 9%

Q: What does the source list for `Cc1c(C=O)c2cc(F)ccc2n1CCC(N)=O` [Example 4G, β-(2-Methyl-3-formyl-5-fluoro-1-indole)propionamide]?
A: inhibition in vivo at 100 mg/kg ([1]; oral): 17%; inhibition in vivo at 100 mg/kg ([1]; sc, s.c.): 36%; pH of the gastric fluid ([1]; oral): 1.1; pH of the gastric fluid ([1]; s.c.): 1.2; Anti-Ulcer: ratio of number of animals with ulcers to total number of animals in the test group [2]: 5/5

Q: Which results are given for `Cc1c(C)n(CC(C)C(N)=O)c2ccccc12` (stereo not drawn) [Example 4H, β-(2,3-Dimethyl-1-indole) -α-methylpropionamide]?
A: inhibition in vivo at 100 mg/kg ([1]; po, oral): 100%; pH of the gastric fluid ([1]; oral): 5.7; inhibition in vivo at 100 mg/kg ([2]; Rattus norvegicus, 18 h): 89%

Q: `Cc1c(C=O)c2ccccc2n1CCCC(N)=O` [Example 4J, γ-(2-Methyl-3-formyl-1-indole)butyramide] was tested. Which inhibition in vivo at 100 mg/kg ([1]; oral) did it give?
A: 17%

Q: And the “pH of the gastric fluid” value ([1]; oral)?
A: 1.2

Q: And the inhibition in vivo at 100 mg/kg ([2]; Rattus norvegicus, 18 h)?
A: 26%

Q: How did the inhibition in vivo at 100 mg/kg ([1]; intraduodenal, i.d.) turn out when `Cc1c(C=O)n(CCC(N)=O)c2ccccc12` [Example 4K, β-(2-Formyl-3-methyl-1-indole)propionamide] was run?
A: 37%

Q: What about the inhibition in vivo at 100 mg/kg ([1]; ip, i.p.) of the same compound?
A: 54%

Q: What about the “pH of the gastric fluid” value ([1]; i.d.) of the same compound?
A: 1.54

Q: What about the “pH of the gastric fluid” value ([1]; i.p.) of the same compound?
A: 2.30

Q: What about the “pH of the gastric fluid” value ([1]; oral) of the same compound?
A: 1.16

Q: What about the “Anti-Ulcer: ratio of number of animals with ulcers to total number of animals in the test group” value (“Anti-Ulcer: ratio of number of animals” for short) [2] of the same compound?
A: 3/5

Q: For `Cc1c(C(=O)C(F)(F)F)c2ccccc2n1CCC(N)=O` [Example 4L, β-(2-Methyl-3-trifluoroacetyl-1-indole)propionamide], which inhibition in vivo at 100 mg/kg ([1]; oral) is on record?
A: 46%

Q: And the inhibition in vivo at 100 mg/kg ([1]; intraduodenal, i.d.)?
A: 65%

Q: And the inhibition in vivo at 100 mg/kg ([1]; ip, i.p.)?
A: 78%

Q: What about the “pH of the gastric fluid” value ([1]; i.d.) of the same compound?
A: 2.5

Q: What about the “pH of the gastric fluid” value ([1]; i.p.) of the same compound?
A: 3.8

Q: And the “pH of the gastric fluid” value ([1]; oral)?
A: 1.8

Q: How did the inhibition in vivo at 100 mg/kg ([1]; intraduodenal, i.d.) turn out when `Cc1c(-c2ccccc2)n(CCC(N)=O)c2ccccc12` [Example 4M, β-(2-Phenyl-3-methyl-1-indole)propionamide] was run?
A: 34%

Q: What about the inhibition in vivo at 100 mg/kg ([1]; ip, i.p.) of the same compound?
A: 43%

Q: And the inhibition in vivo at 100 mg/kg ([1]; po, oral)?
A: 20%

Q: What about the “pH of the gastric fluid” value ([1]; i.d.) of the same compound?
A: 1.2

Q: And the “pH of the gastric fluid” value ([1]; i.p.)?
A: 1.7

Q: And the “pH of the gastric fluid” value ([1]; oral)?
A: 1.1

Q: And the “Anti-Ulcer: ratio of number of animals” value [2]?
A: 0/5

Q: With `NC(=O)CCn1c(-c2ccccc2)c(C=O)c2ccccc21` [Example 4N, β-(2-Phenyl-3-formyl-1-indole)propionamide] as the compound, how does the inhibition in vivo at 100 mg/kg ([1]; oral) read?
A: 0%

Q: And the inhibition in vivo at 100 mg/kg ([1]; sc, s.c.)?
A: 0%

Q: And the “pH of the gastric fluid” value ([1]; oral)?
A: 1.0

Q: What about the “pH of the gastric fluid” value ([1]; s.c.) of the same compound?
A: 1.0

Q: What about the “Anti-Ulcer: ratio of number of animals” value [2] of the same compound?
A: 5/5
